Results: patent US7713994B2 (Wyeth LLC, priority 2005, dated 2010)
Read-outs that look alike come from different tables or passages of the source.

Key:
LoVo = test: Cytotoxicity assay (SRB), LoVo; format: cell-based; conditions: LoVo cells, SRB, three days, read-out: In Vitro Cellular Activity IC50 LOVO
Procedure, shortened: (§1)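 Cells grown in RPMI 1640 with 5% FBS were treated with compound for three days (HCT-116, LoVo, MCF-7) or six days (BT474). Viable cell mass was quantified by sulforhodamine B staining of TCA-fixed protein and read at 540 nm.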

cyclin D1/cdk 4 enzyme = molecular target: T1, cyclin D1/cdk 4 enzyme (Homo sapiens, UniProt P11802); test: CDK4 ELISA kinase assay (phospho-Rb ser 795 detection); format: biochemical; conditions: In Vitro Enzyme Assays, 200 μM ATP, read-out: CDK4 IC50
T1 construct: made in house; host or cells: Sf9 insect cells, recombinant baculovirus
Procedure, shortened: (§2)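 GST-Rb C-terminal fragment coated on plates; partially purified Sf9-expressed cyclin D1/CDK4, cyclin E/CDK2 or cyclin B/CDK1 with 200 μM ATP, pH 7.5 HEPES/MgCl2 buffer, 1 h at 30 °C; screen compound final 10 μg/ml. Phospho-Rb Ser795 detected by antibody ELISA (TMB, A450); % of control, IC50 from background-subtracted inhibition curves.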

cyclin E/CDK2 enzyme = molecular target: T2, cyclin E/CDK2 enzyme (Homo sapiens, UniProt P24941); test: CDK2 ELISA kinase assay (phospho-Rb ser 795 detection); format: biochemical; conditions: In Vitro Enzyme Assays, read-out: CDK2 IC50
T2 construct: made in house; host or cells: Sf9 insect cells, recombinant baculovirus
Procedure, shortened: as §2

HCT-116 = test: Cytotoxicity assay (SRB), HCT-116; format: cell-based; conditions: HCT116 cells, SRB, three days, read-out: In Vitro Cellular Activity IC50 HCT116
Procedure, shortened: as §1

cyclin B/CDK1 enzyme = molecular target: T3, cyclin B/CDK1 enzyme (Homo sapiens, UniProt P06493); test: CDK1 ELISA kinase assay (phospho-Rb ser 795 detection); format: biochemical; conditions: In Vitro Enzyme Assays, read-out: CDK1 IC50
T3 construct: purchased New England BioLabs; host or cells: Sf9 insect cells, recombinant baculovirus
Procedure, shortened: as §2

MCF-7 = test: Cytotoxicity assay (SRB), MCF-7; format: cell-based; conditions: MCF-7 cells, SRB, three days, read-out: In Vitro Cellular Activity IC50 MCF-7
Procedure, shortened: as §1

BT474 = test: Cytotoxicity assay (SRB), BT474; format: cell-based; conditions: BT474 cells, SRB, 6 days, read-out: In Vitro Cellular Activity IC50 BT474
Procedure, shortened: as §1

T1 sequence (P11802 whole entry, species assumed): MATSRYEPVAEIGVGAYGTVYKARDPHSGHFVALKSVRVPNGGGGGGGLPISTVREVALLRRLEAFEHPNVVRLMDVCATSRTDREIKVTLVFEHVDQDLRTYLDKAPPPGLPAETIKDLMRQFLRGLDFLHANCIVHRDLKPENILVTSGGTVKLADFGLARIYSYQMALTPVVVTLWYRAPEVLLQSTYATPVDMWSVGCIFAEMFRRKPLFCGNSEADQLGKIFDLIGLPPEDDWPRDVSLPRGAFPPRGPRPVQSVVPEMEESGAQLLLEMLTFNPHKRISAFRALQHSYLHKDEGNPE
T1 sequence (P24385 whole entry partner, species assumed): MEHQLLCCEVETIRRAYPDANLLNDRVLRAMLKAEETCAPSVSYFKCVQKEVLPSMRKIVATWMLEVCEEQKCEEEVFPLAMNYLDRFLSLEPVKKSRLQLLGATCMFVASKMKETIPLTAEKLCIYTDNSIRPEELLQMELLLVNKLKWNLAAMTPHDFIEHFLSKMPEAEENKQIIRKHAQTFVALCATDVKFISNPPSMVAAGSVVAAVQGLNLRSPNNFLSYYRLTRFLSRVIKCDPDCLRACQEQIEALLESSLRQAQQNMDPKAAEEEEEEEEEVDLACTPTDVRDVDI
T3 sequence (P06493 whole entry): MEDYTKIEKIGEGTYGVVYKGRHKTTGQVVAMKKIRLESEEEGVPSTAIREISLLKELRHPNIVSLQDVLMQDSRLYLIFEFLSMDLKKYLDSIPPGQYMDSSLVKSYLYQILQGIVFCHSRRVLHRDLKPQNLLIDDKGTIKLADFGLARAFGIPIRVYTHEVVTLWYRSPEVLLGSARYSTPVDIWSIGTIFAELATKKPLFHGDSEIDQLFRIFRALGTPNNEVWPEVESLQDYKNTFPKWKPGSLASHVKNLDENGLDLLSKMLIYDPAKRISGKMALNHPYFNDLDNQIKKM
T3 sequence (P14635 whole entry partner): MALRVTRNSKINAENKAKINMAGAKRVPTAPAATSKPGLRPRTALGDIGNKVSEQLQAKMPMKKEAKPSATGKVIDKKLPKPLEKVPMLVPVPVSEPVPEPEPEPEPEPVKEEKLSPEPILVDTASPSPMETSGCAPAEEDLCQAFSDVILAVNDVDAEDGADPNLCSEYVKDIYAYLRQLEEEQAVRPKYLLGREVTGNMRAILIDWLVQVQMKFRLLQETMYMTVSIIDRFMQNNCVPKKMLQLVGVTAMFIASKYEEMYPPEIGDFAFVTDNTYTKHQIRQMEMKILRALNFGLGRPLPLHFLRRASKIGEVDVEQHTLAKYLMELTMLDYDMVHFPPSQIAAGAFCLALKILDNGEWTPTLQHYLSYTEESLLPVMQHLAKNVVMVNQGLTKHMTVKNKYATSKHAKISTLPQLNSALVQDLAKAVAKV

| IC50 (cyclin D1/cdk 4 enzyme) [µM] | IC50 (cyclin E/CDK2 enzyme) [µM] | IC50 (cyclin B/CDK1 enzyme) [µM] | Structure (SMILES) | IC50 (LoVo; Homo sapiens, LoVo, 72 h) [µM] | IC50 (HCT-116; Homo sapiens, HCT-116, 72 h) [µM] | IC50 (MCF-7; Homo sapiens, MCF7, 72 h) [µM] | IC50 (BT474; Homo sapiens, BT-474, 144 h) [µM] | IC50 (LoVo) [µM] | IC50 (HCT-116) [µM] | IC50 (MCF-7) [µM] | IC50 (BT474) [µM] |
| --- | --- | --- | --- | --- | --- | --- | --- | --- | --- | --- | --- |
| 7.8 | 22.6 | > 50 | C/C=C/C(=O)Nc1ccc(CN/C=C2\C(=O)NC(=O)c3ccc(I)cc32)cc1OC(=O)/C=C/C [Example 343, 2-[(2E)-But-2-enoylamino]-5-({[(Z)-(6-iodo-1,3-dioxo-2,3-dihydroisoquinolin-4(1H)-ylidene)methyl]amino}methyl)phenyl (2E)-but-2-enoate] | 9.8 | 12 | 14 | 7.7 |  |  |  |  |
| > 50 | 31.7 | > 50 | CCCOc1ccc(CN/C=C2\C(=O)NC(=O)c3ccc(Br)cc32)cc1C(N)=O [Example 353, 5-({[(Z)-(6-Bromo-1,3-dioxo-2,3-dihydroisoquinolin-4(1H)-ylidene)methyl]amino}methyl)-2-propoxybenzamide] | 1 | 6.1 | > 50 | 0.67 |  |  |  |  |
| 0.23 | 5 | > 50 | CC(c1ccc(N/C=C2\C(=O)NC(=O)c3ccc(I)cc32)cc1)N1CCCC1 (centres unmarked) [Example 354, 6-Iodo-4-{[4-(1-pyrrolidin-1-yl-ethyl)-phenylamino]-methylene}-4H-isoquinoline-1,3-dione] | 3.5 | 4.8 | 0.94 | 8.6 |  |  |  |  |
| 0.46 | > 50 | > 50 | CN1CCN(C2CCC(NC=C3C(=O)NC(=O)c4ccc(I)cc43)CC2)CC1 (centres unmarked) [Example 360, 6-Iodo-4-{[4-(4-methyl-piperazin-1-yl)-cyclohexylamino]-methylene}-4H-isoquinoline-1,3-dione] | 9.6 | 9.6 | 8.9 | 16 |  |  |  |  |
| 0.22 | 17.9 | 45.5 | CN1CCCC1c1ccc(NC=C2C(=O)NC(=O)c3ccc(I)cc32)cc1 (centres unmarked) [Example 361, 6-Iodo-4-{[4-(1-methyl-pyrrolidin-2-yl)-phenylamino]-methylene}-4H-isoquinoline-1,3-dione] | 5.9 | 3.8 | 2.6 | 0.86 |  |  |  |  |
| 0.01 | 0.5 | 14.7 | COc1cnc(CNC=C2C(=O)NC(=O)c3ccc(I)cc32)cc1O [Example 362, 6-Iodo-4-{[(4-hydroxy-5-methoxy-pyridin-2-ylmethyl)-amino]-methylene}-4H-isoquinoline-1,3-dione] | 0.7 | 1.3 | 1 | 0.2 |  |  |  |  |
| 0.006 | 14.7 | > 50 | CCCOc1cnc(CNC=C2C(=O)NC(=O)c3ccc(-n4cccc4)cc32)cc1O [Example 363, 4-{[(4-Hydroxy-5-propoxy-pyridin-2-ylmethyl)-amino]-methylene}-6-pyrrol-1-yl-4H-isoquinoline-1,3-dione] | 2.3 | 3.2 | 2.4 | 1.5 |  |  |  |  |
| 0.07 | 1.9 | > 50 | CCCOc1cnc(CNC=C2C(=O)NC(=O)c3ccc(Br)cc32)cc1O [Example 365, 4-{[(4-Hydroxy-5-propoxy-pyridin-2-ylmethyl)-amino]-methylene}-6-bromo-4H-isoquinoline-1,3-dione] | 1 | 1.3 | 1.2 | 0.76 |  |  |  |  |
| 12.6 | 43.4 | > 50 | COC(=O)[C@H]1CCCN1Cc1ccc(NC=C2C(=O)NC(=O)c3ccc(I)cc32)cc1 [Example 367, D-1-{4-[(6-Iodo-1,3-dioxo-2,3-dihydro-1H-isoquinolin-4-ylidenemethyl)-amino]-benzyl}-pyrrolidine-2-carboxylic acid methyl ester] | 26 | 13 | 13 | 15 |  |  |  |  |
| 0.51 | 30.3 | > 50 | O=C1NC(=O)c2ccc(I)cc2/C1=C/Nc1ccc(CN2CCC[C@@H]2CO)cc1 [Example 368, D-4-{[4-(2-Hydroxymethyl-pyrrolidin-1-ylmethyl)-phenylamino]-methylene}-6-iodo-4H-isoquinoline-1,3-dione] | 3.7 | 3.2 | 1.8 | 0.5 |  |  |  |  |
| 0.46 | > 50 | > 50 | CC(C)(O)[C@H]1CCCN1Cc1ccc(N/C=C2\C(=O)NC(=O)c3ccc(I)cc32)cc1 [Example 369, D-4-({4-[2-(1-Hydroxy-1-methyl-ethyl)-pyrrolidin-1-ylmethyl]-phenylamino}-methylene)-6-iodo-4H-isoquinoline-1,3-dione] | 5 | 4.3 | 1.7 | 1.2 |  |  |  |  |
| 0.39 | > 50 | > 50 | COC(C)C1CCCN1Cc1ccc(N/C=C2\C(=O)NC(=O)c3ccc(I)cc32)cc1 (centres unmarked) [Example 375, 6-Iodo-4-({4-[2-(1-methoxy-ethyl)-pyrrolidin-1-ylmethyl]-phenylamino}-methylene)-4H-isoquinoline-1,3-dione] | 3.2 | 3.9 | 0.71 | 0.52 |  |  |  |  |
| 0.43 | > 50 | > 50 | O=C1NC(=O)c2ccc(I)cc2/C1=C/Nc1ccc(CN2CCC[C@H]2CO)cc1 [Example 376, L-4-{[4-(2-Hydroxymethyl-pyrrolidin-1-ylmethyl)-phenylamino]-methylene}-6-iodo-4H-isoquinoline-1,3-dione] | 2.6 | 3.6 | 0.55 | 0.37 |  |  |  |  |
| 0.65 | 15.4 | 20.4 | O=C1NC(=O)c2ccc(I)cc2/C1=C/Nc1ccc(N2CCNCC2)cc1 [Example 378, (4Z)-6-Iodo-4-{[(4-piperazin-1-ylphenyl)amino]methylene}isoquinoline-1,3(2H,4H)-dione] | 2.6 | 1.5 | 1.1 | 2.9 |  |  |  |  |
| 0.69 | > 50 | > 50 | CCCOc1ccc(CN/C=C2\C(=O)NC(=O)c3ccc(I)cc32)nc1Br [Example 379, (Z)-4-(((6-Bromo-5-propoxypyridin-2-yl)methylamino)methylene)-6-iodoisoquinoline-1,3(2H,4H)-dione] |  |  |  |  | 2.6 | 2.1 | 14 | 1.4 |
| > 50 | > 50 | 38.8 | C/C=C/C(=O)Nc1ccc2c(c1)/C(=C/Nc1ccc(N3CCN(C)CC3)cc1)C(=O)NC2=O [Example 384, (2E)-N-[(4Z)-4-({[4-(4-Methylpiperazin-1-yl)phenyl]amino}methylene)-1,3-dioxo-1,2,3,4-tetrahydroisoquinolin-6-yl]but-2-enamide] | 19 | 12 | 24 | 26 |  |  |  |  |
| 14.7 | 20.7 | 11.5 | C=CC(=O)Nc1ccc2c(c1)/C(=C/Nc1ccc(N3CCN(C)CC3)cc1)C(=O)NC2=O [Example 385, N-[(4Z)-4-({[4-(4-Methylpiperazin-1-yl)phenyl]amino}methylene)-1,3-dioxo-1,2,3,4-tetrahydroisoquinolin-6-yl]acrylamide] | 3.5 | 1.4 | 1.6 | 0.39 |  |  |  |  |
